From publication PMC9612054, “Experimental and Computational Analysis of Newly Synthesized Benzotriazinone Sulfonamides as Alpha-Glucosidase Inhibitors” (Molecules, 2022)

What was measured:
[1] = Solubility (physiochemical properties); assay type: physicochemical; details: solvents in which the compound is soluble
alpha-glucosidase = target: alpha-glucosidase; design: method as in doi:10.1007/s00044-022-02883-1; details: earlier series; cited from earlier work
[2] = target: T1, alpha-Glucosidase (Cat No. 5003-1KU Type I) (Saccharomyces cerevisiae, UniProt P53341); assay: biochemical; details: for inhibition at 500 µM: pH 6.8, read-out: % Inhibition at 0.5 mM
T1 construct: purchased 5003-1KU Type I
Description: It actively works in the intestinal tract by inhibiting alpha-glucosidase, which is responsible for the conversion of complex carbohydrates to absorbable glucose. […] Therefore, an alpha-glucosidase inhibition assay of newly synthesized amino benzotriazinones 11a–11b and their corresponding sulfonamides 12a–12f was carried out by spectrophotometric method.
Alpha-glucosidase inhibition activity was carried out by the Pierre et al. method with slight modifications, and alpha-Glucosidase (Cat No. 5003-1KU Type I) from Saccharomyces cereviciae was utilized for the experimental protocol due to its resemblances to the structure and function of yeast/mammalian enzyme. For test, saline phosphate buffer (70 μL, 50 mM with pH 6.8), alpha-glucosidase enzyme (10 μL, 0.0234 units) and test compound (10 μL, 0.5 mM) were taken in test tubes and incubated for 10 min at 37 °C. Absorbance of these prepared samples was recorded at 400 nm. 10 μL p-nitrophenyl-alpha-D-glucopyranoside (0.5 mM, ‘substrate’, code No. N1377 from Sigma) was used to initiate the reaction and test tubes were allowed to stand for 30 min. Then, the variation in concentration of free substrate was noted by the change in absorbance. The enzyme percentage inhibition was estimated by the following formula and IC50 values were calculated by ‘EZ-Fit enzyme kinetics software. % Inhibition = [([…])/Abs. of control] × 100

T1 sequence (P53341 whole entry): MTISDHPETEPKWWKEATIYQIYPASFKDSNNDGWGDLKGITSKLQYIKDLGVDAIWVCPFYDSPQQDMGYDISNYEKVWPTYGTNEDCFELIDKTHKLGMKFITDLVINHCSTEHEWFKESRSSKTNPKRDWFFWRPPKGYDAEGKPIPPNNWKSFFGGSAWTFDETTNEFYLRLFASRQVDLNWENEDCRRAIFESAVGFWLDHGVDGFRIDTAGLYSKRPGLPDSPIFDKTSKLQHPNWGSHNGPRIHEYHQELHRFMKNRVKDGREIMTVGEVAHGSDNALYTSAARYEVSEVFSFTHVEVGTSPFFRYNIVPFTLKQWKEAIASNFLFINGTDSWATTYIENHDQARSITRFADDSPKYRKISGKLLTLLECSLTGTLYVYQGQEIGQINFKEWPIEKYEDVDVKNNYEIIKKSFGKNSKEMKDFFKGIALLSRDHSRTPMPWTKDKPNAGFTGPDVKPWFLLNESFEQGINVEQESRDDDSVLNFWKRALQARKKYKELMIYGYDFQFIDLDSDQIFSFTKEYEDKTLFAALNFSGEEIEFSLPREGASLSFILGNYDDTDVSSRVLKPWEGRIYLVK

| Compound | Solubility [1] | IC50 (alpha-glucosidase) [µM] | melting point [°C] | inhibition at 500 µM [2] [%] | IC50 [2] [µM] | % Inhibition at 0.5 mM ([2]; test compound 0.5 mM, pH 6.8, 37 °C) [%] |
| --- | --- | --- | --- | --- | --- | --- |
| 6-Nitroisatoic Anhydride [Compound 8] | Ethanol, DMSO |  |  |  |  |  |
| Cc1ccc(NS(=O)(=O)c2ccc(-n3nnc4ccccc4c3=O)cc2)cc1C [Compound 4] |  | 29.75 ± 0.14 |  |  |  |  |
| CCCNC(=O)c1cc([N+](=O)[O-])ccc1N [Compound 9a, 2-Amino-5-nitro-N-propylbenzamide] | Ethanol, DMSO |  | 195 to 197 |  |  |  |
| CCCCNC(=O)c1cc([N+](=O)[O-])ccc1N [Compound 9b, 2-Amino-5-nitro-N-butylbenzamide] | Ethanol, DMSO |  | 197 to 199 |  |  |  |
| CCCn1nnc2ccc([N+](=O)[O-])cc2c1=O [Compound 10a, 6-Nitro-3-propylbenzo[1,2,3]triazin-4(3H)-one] | Ethanol, DMSO |  | 215 to 217 |  |  |  |
| CCCCn1nnc2ccc([N+](=O)[O-])cc2c1=O [Compound 10b, 6-Nitro-3-butylbenzo[1,2,3]triazin-4(3H)-one] | Ethanol, DMSO |  | 217 to 218 |  |  |  |
| CCCn1nnc2ccc(N)cc2c1=O [Compound 11a, 6-Amino-3-propylbenzo[1,2,3]triazin-4(3H)-one] | Methanol, DMSO |  | 185 to 186 | 26.12 ± 0.13 |  |  |
| CCCCn1nnc2ccc(N)cc2c1=O [Compound 11b, 6-Amino-3-butylbenzo[1,2,3]triazin-4(3H)-one] | Methanol, DMSO |  | 191 to 192 | 27.12 ± 0.13 |  |  |
| CCCn1nnc2ccc(NS(=O)(=O)c3ccccc3)cc2c1=O [Compound 12a, N-(4-Oxo-3-propyl-3,4-dihydrobenzo[1,2,3]triazin-6-yl)benzenesulfonamide] | Ethanol, DMSO |  | 171 to 173 | 51.25 ± 0.16 |  |  |
| CCCn1nnc2ccc(NS(=O)(=O)c3ccc(OC)cc3)cc2c1=O [Compound 12b, 4-Methoxy-N-(4-oxo-3-propyl-3,4-dihydrobenzo[1,2,3]triazin-6-yl)benzenesulfonmide] | Ethanol, DMSO |  | 175 to 177 | 91.73 ± 0.17 | 39.21 ± 0.12 |  |
| CCCn1nnc2ccc(NS(=O)(=O)c3ccc(Cl)cc3)cc2c1=O [Compound 12c, 4-Chloro-N-(4-oxo-3-propyl-3,4-dihydrobenzo[1,2,3]triazin-6-yl)benzenesulfonamide] | Ethanol, DMSO |  | 169 to 171 | 78.12 ± 0.16 | 53.76 ± 0.14 |  |
| CCCn1nnc2ccc(NS(=O)(=O)c3ccc(Br)cc3)cc2c1=O [Compound 12d, 4-Bromo-N-(4-oxo-3-propyl-3,4-dihydrobenzo[1,2,3]triazin-6-yl)benzenesulfonamide] | Ethanol, DMSO |  |  | 79.42 ± 0.15 | 55.21 ± 0.12 |  |
| CCCn1nnc2ccc(NS(=O)(=O)c3ccc([N+](=O)[O-])cc3)cc2c1=O [Compound 12e, 4-Nitro-N-(4-oxo-3-propyl-3,4-dihydrobenzo[1,2,3]triazin-6-yl)benzenesulfonamide] | Ethanol, DMSO |  | 167 to 169 | 96.27 ± 0.19 | 32.37 ± 0.15 |  |
| CCCCn1nnc2ccc(NS(=O)(=O)c3ccc([N+](=O)[O-])cc3)cc2c1=O [Compound 12f, 4-Nitro-N-(4-oxo-3-butyl-3,4-dihydrobenzo[1,2,3]triazin-6 yl)benzenesulfonamide] | Ethanol, DMSO |  | 179 to 181 | 93.27 ± 0.14 | 37.75 ± 0.11 |  |
| C[C@H]1O[C@H](O[C@H]2[C@H](O)[C@@H](O)[C@@H](O[C@H]3[C@H](O)[C@@H](O)C(O)O[C@@H]3CO)O[C@@H]2CO)[C@H](O)[C@@H](O)[C@@H]1N[C@H]1C=C(CO)[C@@H](O)[C@H](O)[C@H]1O (stereo partly shown) [acarbose, reference compound] |  |  |  |  |  | 92.23 ± 0.16 |
| Isatoic Anhydride [Compound 7] | Ethanol, DMSO |  |  |  |  |  |
